Source: article PMC6445164, “Primary mono- and bis-sulfonamides obtained via regiospecific sulfochlorination of N-arylpyrazoles: inhibition profile against a panel of human carbonic anhydrases” (Journal of Enzyme Inhibition and Medicinal Chemistry, 2017)
Like-named read-outs stand apart in the source and are kept apart here.

Experiments:
hCA IX = molecular target: hCA IX; design: method as in PMID 26160114; conditions: Figure 2; cited from earlier work
hCA XII = molecular target: hCA XII; design: method as in PMID 26160114; conditions: Figure 2; cited from earlier work
hCA I = hCA I (Homo sapiens, UniProt P00915); assay: stopped-flow CA catalysed CO2 hydration assay, hCA I
Experimental: (§1) An applied photophysics stopped-flow instrument has been used for assaying the CA catalysed CO2 hydration activity[21]. […] The CO2 concentrations ranged from 1.7 to 17 mM for the determination of the kinetic parameters and inhibition constants. […] The uncatalysed rates were determined in the same manner and subtracted from the total observed rates. Stock solutions of inhibitor (0.1 mM) were prepared in distilled-deionized water and dilutions up to 0.005 nM were done thereafter with the assay buffer. Inhibitor and enzyme solutions were preincubated together for 15 min at room temperature prior to assay, in order to allow for the formation of the E–I complex. The inhibition constants were obtained by non-linear least-squares methods using PRISM 3 and the Cheng–Prusoff equation, as reported earlier, and represent the mean from at least three different determinations. All CA isoforms were recombinant ones obtained in-house[22–25].

hCA II = hCA II (Homo sapiens, UniProt P00918); assay: stopped-flow CA catalysed CO2 hydration assay, hCA II
Experimental: as §1

hCA IV = hCA IV (Homo sapiens, UniProt P22748); assay: stopped-flow CA catalysed CO2 hydration assay, hCA IV
Experimental: as §1

hCA VII = hCA VII (Homo sapiens, UniProt P43166); assay: stopped-flow CA catalysed CO2 hydration assay, hCA VII
Experimental: as §1

[1] = within the panel hCA I, II, IV, VII

Chain of hCA IV (P22748 19-312): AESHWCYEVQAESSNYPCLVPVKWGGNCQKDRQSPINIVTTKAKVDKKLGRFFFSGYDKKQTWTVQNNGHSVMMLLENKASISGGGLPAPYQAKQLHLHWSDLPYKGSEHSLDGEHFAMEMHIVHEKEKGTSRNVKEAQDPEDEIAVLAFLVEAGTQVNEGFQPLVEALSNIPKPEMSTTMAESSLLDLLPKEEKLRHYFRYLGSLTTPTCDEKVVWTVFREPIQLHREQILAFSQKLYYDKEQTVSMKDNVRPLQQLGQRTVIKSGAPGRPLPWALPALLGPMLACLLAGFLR
Chain of hCA VII (P43166 whole entry): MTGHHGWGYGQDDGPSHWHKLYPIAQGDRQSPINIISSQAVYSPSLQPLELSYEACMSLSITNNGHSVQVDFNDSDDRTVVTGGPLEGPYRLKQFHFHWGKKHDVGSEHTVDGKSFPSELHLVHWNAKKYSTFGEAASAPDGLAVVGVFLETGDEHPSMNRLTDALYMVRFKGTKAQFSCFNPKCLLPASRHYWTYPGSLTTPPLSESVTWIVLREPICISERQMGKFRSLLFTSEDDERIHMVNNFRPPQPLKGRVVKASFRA
Chain of hCA I (P00915 whole entry): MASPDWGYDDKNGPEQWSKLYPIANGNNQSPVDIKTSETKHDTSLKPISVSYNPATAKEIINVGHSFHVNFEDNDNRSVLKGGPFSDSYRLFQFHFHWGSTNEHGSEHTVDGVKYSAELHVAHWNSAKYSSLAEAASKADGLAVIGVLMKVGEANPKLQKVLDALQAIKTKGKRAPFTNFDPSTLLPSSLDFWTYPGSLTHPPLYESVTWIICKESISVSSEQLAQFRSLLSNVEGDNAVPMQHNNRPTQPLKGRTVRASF

melting point | Ki (hCA I) | isoform selectivity for hCA I, in words (hCA I; [1]) | Ki (hCA II) | Ki (hCA IV) | Ki (hCA VII) | Ki (hCA I; read-out: hCA Ki (μM) hCA I, recombinant enzyme, stopped-flow CO2 hydration, 15 min preincubation, pH 8.3) | Ki (hCA II; read-out: hCA Ki (μM) hCA II, recombinant enzyme, stopped-flow CO2 hydration, 15 min preincubation, pH 8.3) | Ki (hCA IV; read-out: hCA Ki (μM) hCA IV, recombinant enzyme, stopped-flow CO2 hydration, 15 min preincubation, pH 8.3) | Ki (hCA VII; read-out: hCA Ki (μM) hCA VII, recombinant enzyme, stopped-flow CO2 hydration, 15 min preincubation, pH 8.3) | isoform selectivity for hCA II, in words (hCA II; [1]) | SMILES | Ki (hCA IX) | Ki (hCA XII)
 |  |  |  |  |  |  |  |  |  |  | NS(=O)(=O)c1ccc(-c2cnc(C(=O)N3CCCC3)o2)s1 [Compound 4] | 18.7 nM | 6.7 nM
308 to 310 °C | 0.87 µM | selective inhibitor of hCA I | > 10 µM | > 10 µM | > 10 µM |  |  |  |  |  | Cc1ccc(S(N)(=O)=O)cc1-n1nc(C)c(S(N)(=O)=O)c1C [Compound 9h, 3,5-Dimethyl-1-(2-methyl-5-sulfamoylphenyl)-^1H-pyrazole-4-sulfonamide] |  | 
185 to 188 °C |  |  |  |  |  | 0.55 µM | 0.03 µM | 7.86 µM | 0.014 µM |  | Cc1ccc(S(N)(=O)=O)cc1-n1cc(S(N)(=O)=O)cn1 [Compound 9i, 1-(2-Methyl-5-sulfamoylphenyl)-^1H-pyrazole-4-sulfonamide] |  | 
254 to 257 °C | 0.95 µM |  | 0.96 µM | > 10 µM | 0.33 µM |  |  |  |  |  | COc1ccc(-n2nc(C)c(S(N)(=O)=O)c2C)cc1S(N)(=O)=O [Compound 9j, 1-(4-Methoxy-3-sulfamoylphenyl)-3,5-dimethyl-^1H-pyrazole-4-sulfonamide] |  | 
256 to 258 °C | 4.65 µM |  | 0.61 µM | > 10 µM | 0.17 µM |  |  |  |  |  | COc1cc(-n2nc(C)c(S(N)(=O)=O)c2C)ccc1S(N)(=O)=O [Compound 9k, 1-(3-Methoxy-4-sulfamoylphenyl)-3,5-dimethyl-^1H-pyrazole-4-sulfonamide] |  | 
238 to 242 °C | 6.8 µM |  | 0.3 µM | 0.95 µM | > 10 µM |  |  |  |  |  | COc1ccc(S(N)(=O)=O)cc1-n1nc(C)c(S(N)(=O)=O)c1C [Compound 9l, 1-(2-Methoxy-5-sulfamoylphenyl)-3,5-dimethyl-^1H-pyrazole-4-sulfonamide] |  | 
241 to 243 °C | 0.89 µM |  | 0.04 µM | 0.077 µM | 0.65 µM |  |  |  |  |  | Cc1nn(-c2ccc(Cl)c(S(N)(=O)=O)c2)c(C)c1S(N)(=O)=O [Compound 9m, 1-(4-Chloro-3-sulfamoylphenyl)-3,5-dimethyl-^1H-pyrazole-4-sulfonamide] |  | 
232 to 235 °C | 0.62 µM |  | 0.024 µM | 0.074 µM | 0.099 µM |  |  |  |  |  | NS(=O)(=O)c1cnn(-c2ccc(Cl)c(S(N)(=O)=O)c2)c1 [Compound 9n, 1-(4-Chloro-3-sulfamoylphenyl)-^1H-pyrazole-4-sulfonamide] |  | 
198 to 201 °C | 0.16 µM |  | 0.008 µM | 0.93 µM | 0.71 µM |  |  |  |  |  | Cc1nn(-c2ccc(S(N)(=O)=O)c(Cl)c2)c(C)c1S(N)(=O)=O [Compound 9o, 1-(3-Chloro-4-sulfamoylphenyl)-3,5-dimethyl-^1H-pyrazole-4-sulfonamide] |  | 
195 to 197 °C | 3.08 µM |  | 0.008 µM | 0.075 µM | 0.48 µM |  |  |  |  |  | NS(=O)(=O)c1cnn(-c2ccc(S(N)(=O)=O)c(Cl)c2)c1 [Compound 9p, 1-(3-Chloro-4-sulfamoylphenyl)-^1H-pyrazole-4-sulfonamide] |  | 
230 to 232 °C | 2.12 µM |  | 0.025 µM | 4.38 µM | > 10 µM |  |  |  |  | selective hCA II inhibitor | Cc1nn(-c2cc(S(N)(=O)=O)ccc2Cl)c(C)c1S(N)(=O)=O [Compound 9q, 1-(2-Chloro-5-sulfamoylphenyl)-3,5-dimethyl-^1H-pyrazole-4-sulfonamide] |  | 
235 to 237 °C | 0.55 µM |  | 0.005 µM | 0.022 µM | 0.6 µM |  |  |  |  |  | NS(=O)(=O)c1ccc(Cl)c(-n2cc(S(N)(=O)=O)cn2)c1 [Compound 9r, 1-(2-Chloro-5-sulfamoylphenyl)-^1H-pyrazole-4-sulfonamide] |  | 
